# Experiments:
# [1] = system: BRAF-mutated resistant melanoma cell lines; experiment: Induction of apoptosis and cell death by PSVue 643 staining in acquired drug resistant melanoma cell lines; assay type: cell-based, human
# Procedure: Adherent melanoma cells were harvested with 0.05% Trypsin-EDTA and were washed once with 1×DPBS. Cells were labeled with CellTrace™ Violet according to the manufacturer's protocol and were allowed to adhere to tissue culture plates overnight following the drug treatment. At indicated time points following the drug treatment, floating and adherent cells were pooled, washed with Hank's Buffered Salt Solution (HBSS) and then stained with CellROX Deep Red at 2.5 μM or MitoTracer Red at 0.25 μM for 1 h in a 37° C. humidified incubator supplied with 5% CO2. Cells were then pelleted, washed with DPBS, and stained with PSVue® 643 at 5 μM diluted in TES buffer for 5 min in the dark. Cells were then immediately subjected to FACS analysis using a BD LSR II flow cytometer and at least 5,000 cells per sample were acquired.
# Labeling cells with Propidium Iodide and PSVue—Following centrifugation, cells were resuspended in 0.1 ml 1×PBS, co-stained with propidium iodide at 1 μg/ml and PSVue® 643 at 5 μM, and then stained with PSVue® 643 at 5 μM alone. Cell suspensions were kept in the dark at room temperature for 5 min. 0.2 ml 1×PBS supplemented with 10% FBS was added to each cell suspension and cells were immediately analyzed by BD LSRII.
# Separation of live cells from dead cells including early apoptotic cells—Based on the fluorescence of PSVue 643, cells are separated into 2 subpopulations, live cells (PSVue 643Neg) and dead cells including early apoptotic cells (PSVue 643Pos).
# [2] = system: 1205Lu melanoma xenograft; experiment: Tumor volume of 1205Lu melanoma xenografts; assay type: in vivo, mice; conditions: 1205Lu xenografts; for % T/C (percentages of tumor volumes): Table 7, 17 days, alone or with PLX4720 200 mg/kg diet
# [3] = system: LC3B-II, phospho-S6, phospho-AMPKα; experiment: RPPA and immunoblotting of autophagy and metabolic stress markers in WM9 cells; assay type: cell-based, human
# Source text: The raw data of gene expression microarrays generated from Illumina Chips were normalized, background-corrected and summarized using the R package “lumi” (Du et al., 2008). Probes below background level (detection P-value <0.01) were excluded and differential expression was identified with Bayes-adjusted variance analysis using the Bioconductor Limma package. To reduce false positives, the unexpressed probes were removed. The R package “limma” (Smyth, 2004, 2005) was employed for gene differential expression analysis, followed by multiple test correction by the Benjamini and Hochberg procedure (Benjamini and Hochberg, 1995). […] We also conducted GSEA as previously reported (Subramanian et al., 2005). For GSEA, we analyzed gene sets obtained from the Molecular Signatures Database (broadinstitute.org/gsea/msigdb/). The same differential expression analysis method was applied to RPPA data.
# Cells were washed with ice-cold PBS containing 100 μM Na3VO4 and scraped off culture dishes. After centrifugation, cell pellets were lysed in buffer containing 10 mM Tris-HCl, pH 7.8, 150 mM NaCl, 1 mM EDTA, 1% Nonidet P-40, 1 mM Na3VO4 and protease inhibitors (Roche complete protease inhibitor tablets). Lysates were cleared by micro-centrifugation and protein concentrations were determined with Protein Assay Dye Reagent Concentrate (Bio-Rad). […]
# WM9 melanoma cells = experiment: Induction of apoptosis and cell death by PSVue 643 staining in WM9 melanoma cells; assay type: cell-based, human; conditions: WM9, 72 h
# Procedure: Adherent melanoma cells were harvested with 0.05% Trypsin-EDTA and were washed once with 1×DPBS. Cells were labeled with CellTrace™ Violet according to the manufacturer's protocol and were allowed to adhere to tissue culture plates overnight following the drug treatment. […] Cells were then immediately subjected to FACS analysis using a BD LSR II flow cytometer and at least 5,000 cells per sample were acquired.
# Cell suspensions were kept in the dark at room temperature for 5 min. 0.2 ml 1×PBS supplemented with 10% FBS was added to each cell suspension and cells were immediately analyzed by BD LSRII.
# Briefly, autophagic flux was assessed by FACS analysis of WM9 cells expressing the mCherry-eGFPLC3B construct that were transfected with the indicated siRNAs targeting autophagy and ER stress response and treated for 72 h with DMSO or the combination of PLX4720 at 10 μM and PD0325901 at 1 μM. The data represent the average of 2 biological replicates. […] Autophagic flux was assessed by FACS analysis of WM9 cells expressing the mCherry-eGFPLC3B construct treated for 72 h with Gamitrinib at 1 μM or Spautin-1 at 10 μM in combination with PLX4720 at 10 μM/PD0325901 at 1 μM. Cells treated with DMSO were used as the control for setting up the gate.
substance,measurement,setting,value
Gamitrinib,cell death in combination therapy resistant (CR) cell line,"[1]; 1 CR cell line (WM9 CR), Gamitrinib 1 and 2.5 μM, 48 h",significantly induced cell death
same,resistant cell lines in which apoptosis and cell death was significantly induced,"[1]; 23 resistant cell lines, 2.5 μM Gamitrinib, 72 hours",18 of 23
same,BRAF inhibitor resistant (BR) cell lines in which cell death was significantly induced,"[1]; BR cell lines, PLX4720 10 μM plus Gamitrinib 2.5 μM, 48 h",7 out of 9
same,tumor growth,[2]; Gamitrinib 15 mg/kg alone,significantly impaired tumor growth
same,% T/C (percentages of tumor volumes),[2]; gamitrinib 5 mg/kg QD i.p.,124.59%
same,% T/C (percentages of tumor volumes),[2]; gamitrinib 15 mg/kg QD i.p.,57.3%
same,"LC3B-II, phospho-S6 and phospho-AMPKα",[3],down-regulated LC3B-II and phospho-S6 and up-regulated phospho-AMPKα
same,induction of apoptosis and cell death,"WM9 melanoma cells; Gamitrinib 1 or 2.5 μM vs 0 or 0.5 μM, with PLX4720 10 μM and PD0325901 1 μM",more remarkable induction of apoptosis and cell death
same,"apoptosis and cell death, compared with other inhibitors of the drug screen","WM9 melanoma cells; titrated doses combined with MAPK pathway inhibitors (PLX4720 10 μM, PD0325901 1 μM)",greater increase in apoptosis and cell death

# Source: US20240207202A1, “COMBINATION THERAPIES TARGETING MITOCHONDRIAL BIOGENESIS FOR CANCER THERAPY” (The Wistar Institute of Anatomy and Biology, priority 2015, published 2024)
